Experimental data as given in patent publication US11505521B2 (Biothea Pharma, Inc., priority 2018, dated 2022).
Where two headings read alike, the source gives them in different places.

Experiments:
[1] = physchem; details: n-octanol / pH 3.47 buffer
Description: (§1) The tests were conducted using Sartorius balances (Model SQP), a Thermo HPLC (UltiMate 3000 System, UV Wavelength: 205 nm), and Phenomenex Luna columns (5 μm C18 (2), 4.6×250 mm). The column temperature was 40° C. and the autosampler temperature was room temperature. The injection volume was 5 μL.
(§2) Mobile Phase A was prepared by weighing 4.0 g tetramethylammonium bisulfate (MERYER, Batch No. 77957139) and 1.1 sodium 1-heptasulfonate (Admas-beta, Batch No. P1343755), and transferring the materials to a flask. 2 mL of 0.1 mol/L EDTA solution (Brand: Sinopharm Chemical Reagent Co., Ltd., Batch No. 20150410) was added to the flask and the volume was adjusted to 950 mL using water. The solution was mixed and adjusted to a pH of 3.5 with 0.1N sodium hydroxide solution (Brand: Enox, Batch No. 20161201). Mobile Phase B was prepared using ethanol. The isocratic elution was used in a proportion of A/B of 85/15. The run time was 8 minutes.
A hydrogen disodium phosphate solution was prepared by weighing 7.1 g of hydrogen disodium phosphate (Brand: Sinopharm Chemical Reagent Co., Ltd., Batch No. 20150910). A citric acid solution was prepared by weighing 5.25 g of hydrated citric acid (Brand: General-Reagent, Batch No. 5949-29-1) and dissolving it in 1000 mL of water. A pH 3.47 buffer solution was prepared by adjusting the pH of the hydrogen disodium phosphate solution to 3.47 with the citric acid solution. An n-octanol buffer solution was prepared by mixing 100 mL of n-octanol (Brand: Chinasun Specialty Products Co., Ltd., Batch No. 20160601) and 100 mL of the pH 3.47 buffer solution, vibrated for 24 hours, which sat for an hour to separate the n-octanol phase and the pH 3.47 buffer phase.
10 mg of the sample was dissolved in 10 mL of the saturated n-octanol solution and mixed completely. 10 mL of the saturated pH 3.47 buffer solution was added and vortexed at 3000 r/min for 1 hour. 1 mL of solution was pipetted from the n-octanol and pH 3.47 phase after an hour. A standard solution was prepared containing 1 mg/mL of the standard in diluent. An LOQ solution was prepared from about 0.1% of the standard solution. An n-octanol phase solution was diluted with 1 mL of methanol to test. The pH 3.47 phase solution was injected directly. The partition coefficient was calculated using the following formula:
[formula] wherein Co is the equilibrium concentration of solute in oil phase, and Cw is the equilibrium concentration of solute in water phase.

[2] = Description: The stability of the pharmaceutical compositions of Example 3 were tested. The stability studies were conducted on packaged epinephrine salts at 25° C./RH 60% and 40° C./RH 75% conditions, as well as samples without packaging and exposed to light (4500 Lux) for one month. The appearance, assay content, and related substances were examined at 5, 7, 14 and 30 days.
as §1, with “assay content was tested” for “tests were conducted”, “SQP), an INESA pH meter (Model PHS-3E),” for “SQP),”, “C.,” for “C.”
as §2, with “using methanol.” for “using ethanol.”, “was 10” for “was 8”
The assay content was analyzed by dissolving 20 mg of each sample to be examined in 50 mL of Mobile Phase A (0.4 mg/mL) as assay test solution. The sample was used and tested right after it was ready and was protected from light.
The purity was tested using Sartorius balances (Model SQP), an INESA pH meter (Model PHS-3E), a Thermo HPLC (UltiMate 3000 System, UV Wavelength: 205 nm), and PhenomenexSynergi columns (4 μm Polar-RP 80 A 250×4.6 mm). The column temperature was 30° C., and the autosampler temperature was room temperature. The injection volume was 5 μL.
Mobile Phase A was prepared by weighing 1.136 g of potassium dihydrogen orthophosphate (Brand: CNW, Batch No. A1040040) and 1.74 g of dipotassium hydrogen orthophosphate (Brand: Ourchem, Batch No. 20160219) and transferring into 1000 mL of water. The pH was adjusted to 3.0±0.05 with orthophosphoric acid (Brand: Ourchem, Batch No. 4112K060). The solution was filtered through a 0.45 μm membrane and degassed. Mobile Phase B was prepared using methanol. The run time was 50 minutes.
The purity was analyzed by dissolving 10 mg of each sample to be examined in 25 mL of Mobile Phase A (0.4 mg/mL) as purity and related substance test solution. The sample was used and tested right after it was ready and was protected from light.

[3] = light 4500 Lux, under air, 0 days
[4] = light 4500 Lux, under air, 5 days
[5] = light 4500 Lux, under air, 7 days
[6] = light 4500 Lux, under air, 14 days
[7] = light 4500 Lux, under air, 30 days

CNC[C@H](O)c1ccc(O)c(O)c1 [epinephrine bitartrate]
LogP ([1]; pH 3.47): -2.95
Appearance ([2]; 25° C./60% RH, 0 days): Off-white
Content (%) ([2]; 25° C./60% RH, 0 days): 100.00%
Related substance (%) ([2]; 25° C./60% RH, 0 days): 0.08%
Appearance ([2]; 25° C./60% RH, 5 days): Off-white
Content (%) ([2]; 25° C./60% RH, 5 days): 100.05%
Related substance (%) ([2]; 25° C./60% RH, 5 days): 0.08%
Appearance ([2]; 25° C./60% RH, 7 days): Off-white
Content (%) ([2]; 25° C./60% RH, 7 days): 100.83%
Related substance (%) ([2]; 25° C./60% RH, 7 days): 0.08%
Appearance ([2]; 25° C./60% RH, 14 days): Off-white
Content (%) ([2]; 25° C./60% RH, 14 days): 99.82%
Related substance (%) ([2]; 25° C./60% RH, 14 days): 0.09%
Appearance ([2]; 25° C./60% RH, 30 days): Off-white
Content (%) ([2]; 25° C./60% RH, 30 days): 100.33%
Related substance (%) ([2]; 25° C./60% RH, 30 days): 0.09%
Appearance ([2]; 40° C./75% RH, 0 days): Off-white
Content (%) ([2]; 40° C./75% RH, 0 days): 100.00%
Related substance (%) ([2]; 40° C./75% RH, 0 days): 0.08%
Appearance ([2]; 40° C./75% RH, 5 days): Off-white
Content (%) ([2]; 40° C./75% RH, 5 days): 100.43%
Related substance (%) ([2]; 40° C./75% RH, 5 days): 0.09%
Appearance ([2]; 40° C./75% RH, 7 days): Off-white
Content (%) ([2]; 40° C./75% RH, 7 days): 100.84%
Related substance (%) ([2]; 40° C./75% RH, 7 days): 0.09%
Appearance ([2]; 40° C./75% RH, 14 days): Off-white
Content (%) ([2]; 40° C./75% RH, 14 days): 100.17%
Related substance (%) ([2]; 40° C./75% RH, 14 days): 0.09%
Appearance ([2]; 40° C./75% RH, 30 days): Off-white
Content (%) ([2]; 40° C./75% RH, 30 days): 100.96%
Related substance (%) ([2]; 40° C./75% RH, 30 days): 0.10%
Appearance [2, 3]: Off-white
Content (%) [2, 3]: 100.00%
Related substance (%) [2, 3]: 0.08%
Appearance [2, 4]: Off-white
Content (%) [2, 4]: 99.71%
Related substance (%) [2, 4]: 0.10%
Appearance [2, 5]: Off-white
Content (%) [2, 5]: 102.34%
Related substance (%) [2, 5]: 0.10%
Appearance [2, 6]: Off-white
Content (%) [2, 6]: 100.43%
Related substance (%) [2, 6]: 0.09%
Appearance [2, 7]: Off-white
Content (%) [2, 7]: 100.39%
Related substance (%) [2, 7]: 0.09%

CNC[C@H](O)c1ccc(O)c(O)c1 [epinephrine malonate]
LogP [1]: −3.00
Appearance ([2]; 25° C./60% RH, 0 days): Off-white
Content (%) ([2]; 25° C./60% RH, 0 days): 100.00%
Related substance (%) ([2]; 25° C./60% RH, 0 days): 0.01%
Appearance ([2]; 25° C./60% RH, 5 days): Off-white
Content (%) ([2]; 25° C./60% RH, 5 days): 99.94%
Related substance (%) ([2]; 25° C./60% RH, 5 days): 0.02%
Appearance ([2]; 25° C./60% RH, 7 days): Off-white
Content (%) ([2]; 25° C./60% RH, 7 days): 99.62%
Related substance (%) ([2]; 25° C./60% RH, 7 days): 0.02%
Appearance ([2]; 25° C./60% RH, 14 days): Off-white
Content (%) ([2]; 25° C./60% RH, 14 days): 98.81%
Related substance (%) ([2]; 25° C./60% RH, 14 days): 0.05%
Appearance ([2]; 25° C./60% RH, 30 days): Off-white
Content (%) ([2]; 25° C./60% RH, 30 days): 100.64%
Related substance (%) ([2]; 25° C./60% RH, 30 days): 0.05%
Appearance ([2]; 40° C./75% RH, 0 days): Off-white
Content (%) ([2]; 40° C./75% RH, 0 days): 100.00%
Related substance (%) ([2]; 40° C./75% RH, 0 days): 0.01%
Appearance ([2]; 40° C./75% RH, 5 days): Off-white
Content (%) ([2]; 40° C./75% RH, 5 days): 100.25%
Related substance (%) ([2]; 40° C./75% RH, 5 days): 0.03%
Appearance ([2]; 40° C./75% RH, 7 days): Off-white
Content (%) ([2]; 40° C./75% RH, 7 days): 101.64%
Related substance (%) ([2]; 40° C./75% RH, 7 days): 0.02%
Appearance ([2]; 40° C./75% RH, 14 days): Off-white
Content (%) ([2]; 40° C./75% RH, 14 days): 99.63%
Related substance (%) ([2]; 40° C./75% RH, 14 days): 0.08%
Appearance ([2]; 40° C./75% RH, 30 days): Off-white
Content (%) ([2]; 40° C./75% RH, 30 days): 99.87%
Related substance (%) ([2]; 40° C./75% RH, 30 days): 0.11%
Appearance [2, 3]: Off-white
Content (%) [2, 3]: 100.00%
Related substance (%) [2, 3]: 0.01%
Appearance [2, 4]: Off-white
Content (%) [2, 4]: 99.81%
Related substance (%) [2, 4]: 0.03%
Appearance [2, 5]: Off-white
Content (%) [2, 5]: 98.76%
Related substance (%) [2, 5]: 0.03%
Appearance [2, 6]: Off-white
Content (%) [2, 6]: 99.83%
Related substance (%) [2, 6]: 0.06%
Appearance [2, 7]: Off-white
Content (%) [2, 7]: 100.64%
Related substance (%) [2, 7]: 0.04%

epinephrine maleate
LogP [1]: −3.01
Appearance ([2]; 25° C./60% RH, 0 days): Off-white
Content (%) ([2]; 25° C./60% RH, 0 days): 100.00%
Related substance (%) ([2]; 25° C./60% RH, 0 days): 0.17%
Appearance ([2]; 25° C./60% RH, 5 days): Off-white
Content (%) ([2]; 25° C./60% RH, 5 days): 99.50%
Related substance (%) ([2]; 25° C./60% RH, 5 days): 0.18%
Appearance ([2]; 25° C./60% RH, 7 days): Off-white
Content (%) ([2]; 25° C./60% RH, 7 days): 99.97%
Related substance (%) ([2]; 25° C./60% RH, 7 days): 0.17%
Appearance ([2]; 25° C./60% RH, 14 days): Off-white
Content (%) ([2]; 25° C./60% RH, 14 days): 99.43%
Related substance (%) ([2]; 25° C./60% RH, 14 days): 0.16%
Appearance ([2]; 25° C./60% RH, 30 days): Off-white
Content (%) ([2]; 25° C./60% RH, 30 days): 100.69%
Related substance (%) ([2]; 25° C./60% RH, 30 days): 0.17%
Appearance ([2]; 40° C./75% RH, 0 days): Off-white
Content (%) ([2]; 40° C./75% RH, 0 days): 100.00%
Related substance (%) ([2]; 40° C./75% RH, 0 days): 0.17%
Appearance ([2]; 40° C./75% RH, 5 days): Off-white
Content (%) ([2]; 40° C./75% RH, 5 days): 99.30%
Related substance (%) ([2]; 40° C./75% RH, 5 days): 0.17%
Appearance ([2]; 40° C./75% RH, 7 days): Off-white
Content (%) ([2]; 40° C./75% RH, 7 days): 97.76%
Related substance (%) ([2]; 40° C./75% RH, 7 days): 0.18%
Appearance ([2]; 40° C./75% RH, 14 days): Off-white
Content (%) ([2]; 40° C./75% RH, 14 days): 99.24%
Related substance (%) ([2]; 40° C./75% RH, 14 days): 0.16%
Appearance ([2]; 40° C./75% RH, 30 days): Off-white
Content (%) ([2]; 40° C./75% RH, 30 days): 100.19%
Related substance (%) ([2]; 40° C./75% RH, 30 days): 0.16%
Appearance [2, 3]: Off-white
Content (%) [2, 3]: 100.00%
Related substance (%) [2, 3]: 0.17%
Appearance [2, 4]: Off-white
Content (%) [2, 4]: 99.86%
Related substance (%) [2, 4]: 0.18%
Appearance [2, 5]: Off-white
Content (%) [2, 5]: 100.61%
Related substance (%) [2, 5]: 0.19%
Appearance [2, 6]: Off-white
Content (%) [2, 6]: 99.84%
Related substance (%) [2, 6]: 0.16%
Appearance [2, 7]: Off-white
Content (%) [2, 7]: 100.47%
Related substance (%) [2, 7]: 0.17%
